According to ChEMBL document CHEMBL1909294, “Translating clinical findings into knowledge in drug safety evaluation--drug induced liver injury prediction system (DILIps)” (PLoS Comput Biol, 2011):
Where a SMILES comes first, the peptide text is derived from it. Bridges are numbered along the chain shown (N, C = ends). [ ]: non-standard residue; d: D form. hArg = N=C(N)NCCCC[C@H](N)C(=O)O; Mpa = O=C(O)CCS

Key:
Hepatotoxicity [1] = tested on: Hepatotoxicity;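 for HepSE Combined Scores: combined hepatic side effect score as listed in the training data of the Drug Induced Liver Injury Prediction System (DILIps)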;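 for HepSE cirrhosis: cirrhosis hepatic side effect score taken from the DILIps (drug-induced liver injury prediction) training set; call rule not given here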; for HepSE hepatic failure: call rule not given here;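 for HepSE hepatitis: Hepatitis-related hepatic side effect score taken from the training data of DILIps, a prediction system for drug-induced liver injury; call rule not given here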;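 for HepSE hepatomegaly: hepatic side effect score for hepatomegaly, taken from the training set of the DILIps drug-induced liver injury prediction system; call rule not given here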;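 for HepSE liver fatty: hepatic side effect score for fatty liver, taken from the DILIps training set for predicting drug-induced liver injury; call rule not given here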;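 for HepSE liver function tests abnormal: hepatic side effect score taken from the DILIps (drug-induced liver injury prediction system) training data, here covering abnormal liver function test findings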
Hepatotoxicity [2] = tested on: Hepatotoxicity; remark: listed apart in the source;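 for HepSE Combined Scores: combined hepatic side effect score as listed in the training data of the Drug Induced Liver Injury Prediction System (DILIps)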; for HepSE hepatic failure: call rule not given here;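 for HepSE hepatitis: Hepatitis-related hepatic side effect score taken from the training data of DILIps, a prediction system for drug-induced liver injury; call rule not given here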;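 for HepSE hepatomegaly: hepatic side effect score for hepatomegaly, taken from the training set of the DILIps drug-induced liver injury prediction system; call rule not given here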;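 for HepSE liver fatty: hepatic side effect score for fatty liver, taken from the DILIps training set for predicting drug-induced liver injury; call rule not given here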;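 for HepSE liver function tests abnormal: hepatic side effect score taken from the DILIps (drug-induced liver injury prediction system) training data, here covering abnormal liver function test findings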
Hepatotoxicity [3] = tested on: Hepatotoxicity; remark: listed apart in the source;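 for HepSE Combined Scores: combined hepatic side effect score as listed in the training data of the Drug Induced Liver Injury Prediction System (DILIps)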; for HepSE hepatic failure: call rule not given here;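 for HepSE hepatitis: Hepatitis-related hepatic side effect score taken from the training data of DILIps, a prediction system for drug-induced liver injury; call rule not given here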;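 for HepSE hepatomegaly: hepatic side effect score for hepatomegaly, taken from the training set of the DILIps drug-induced liver injury prediction system; call rule not given here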;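 for HepSE liver fatty: hepatic side effect score for fatty liver, taken from the DILIps training set for predicting drug-induced liver injury; call rule not given here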;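 for HepSE liver function tests abnormal: hepatic side effect score taken from the DILIps (drug-induced liver injury prediction system) training data, here covering abnormal liver function test findings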
Hepatotoxicity [4] = tested on: Hepatotoxicity; remark: listed apart in the source;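 for HepSE Combined Scores: combined hepatic side effect score as listed in the training data of the Drug Induced Liver Injury Prediction System (DILIps)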; for HepSE hepatic failure: call rule not given here;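 for HepSE hepatitis: Hepatitis-related hepatic side effect score taken from the training data of DILIps, a prediction system for drug-induced liver injury; call rule not given here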;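 for HepSE hepatomegaly: hepatic side effect score for hepatomegaly, taken from the training set of the DILIps drug-induced liver injury prediction system; call rule not given here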;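 for HepSE liver fatty: hepatic side effect score for fatty liver, taken from the DILIps training set for predicting drug-induced liver injury; call rule not given here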;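 for HepSE liver function tests abnormal: hepatic side effect score taken from the DILIps (drug-induced liver injury prediction system) training data, here covering abnormal liver function test findings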
Hepatotoxicity [5] = tested on: Hepatotoxicity; remark: listed apart in the source; for HepSE hepatic failure: call rule not given here
Hepatotoxicity [6] = tested on: Hepatotoxicity; remark: listed apart in the source; for HepSE hepatic failure: call rule not given here
Hepatotoxicity [7] = tested on: Hepatotoxicity; remark: listed apart in the source
Hepatotoxicity [8] = tested on: Hepatotoxicity; remark: listed apart in the source
Hepatotoxicity [9] = tested on: Hepatotoxicity; remark: listed apart in the source
Hepatotoxicity [10] = tested on: Hepatotoxicity; remark: listed apart in the source
Hepatotoxicity [11] = tested on: Hepatotoxicity; remark: listed apart in the source
Hepatotoxicity [12] = tested on: Hepatotoxicity; remark: listed apart in the source
Hepatotoxicity [13] = tested on: Hepatotoxicity; remark: listed apart in the source
Hepatotoxicity [14] = tested on: Hepatotoxicity; remark: listed apart in the source

Row | SMILES | HepSE_hepatitis (Hepatotoxicity [1]) | HepSE_hepatomegaly (Hepatotoxicity [2]) | HepSE_liver function tests abnormal (Hepatotoxicity [3]) | HepSE_hepatic failure (Hepatotoxicity [4]) | HepSE_liver fatty (Hepatotoxicity [5]) | HepSE_Combined Scores (Hepatotoxicity [6]) | HepSE_cirrhosis (Hepatotoxicity [7]) | HepSE_cholelithiasis (Hepatotoxicity [8]) | HepSE_liver disease (Hepatotoxicity [9]) | HepSE_jaundice (Hepatotoxicity [10]) | HepSE_elevated liver function tests (Hepatotoxicity [11]) | HepSE_cholecystitis (Hepatotoxicity [12]) | HepSE_hepatic necrosis (Hepatotoxicity [13]) | HepSE_bilirubinemia (Hepatotoxicity [14]) | other results
1 | CCCCCc1cc(O)c2c(c1)OC(C)(C)[C@@H]1CCC(C)=C[C@@H]21 [DRONABINOL] | 0 | 0 | 0 | 0 | 0 | 0 | 0 | 0 | 0 | 0 | 0 | 0 | 0 | 0 | 
2 | CNCC[C@H](Oc1cccc2ccccc12)c1cccs1 [DULOXETINE] |  |  |  |  |  |  |  |  |  |  |  |  |  |  | HepSE_hepatitis (Hepatotoxicity [1]; Liver): 1; HepSE_hepatomegaly (Hepatotoxicity [2]; Liver): 0; HepSE_liver function tests abnormal (Hepatotoxicity [3]; Liver): 0; HepSE_hepatic failure (Hepatotoxicity [4]; Liver): 0; HepSE_liver fatty (Hepatotoxicity [5]; Liver): 1; HepSE_Combined Scores (Hepatotoxicity [6]; Liver): 3; HepSE_cirrhosis (Hepatotoxicity [7]; Liver): 0; HepSE_cholelithiasis (Hepatotoxicity [8]; Liver): 0; HepSE_liver disease (Hepatotoxicity [9]; Liver): 0; HepSE_jaundice (Hepatotoxicity [10]; Liver): 1; HepSE_elevated liver function tests (Hepatotoxicity [11]; Liver): 0; HepSE_cholecystitis (Hepatotoxicity [12]; Liver): 0; HepSE_hepatic necrosis (Hepatotoxicity [13]; Liver): 0; HepSE_bilirubinemia (Hepatotoxicity [14]; Liver): 0
3 | C[C@]12C=CC(=O)N[C@@H]1CC[C@@H]1[C@@H]2CC[C@]2(C)[C@@H](C(=O)Nc3cc(C(F)(F)F)ccc3C(F)(F)F)CC[C@@H]12 [DUTASTERIDE] | 0 | 0 | 0 | 0 | 0 | 0 | 0 | 0 | 0 | 0 | 0 | 0 | 0 | 0 | 
4 | Clc1ccc(COC(Cn2ccnc2)c2ccc(Cl)cc2Cl)cc1 (stereo not drawn) [ECONAZOLE] | 0 | 0 | 0 | 0 | 0 | 0 | 0 | 0 | 0 | 0 | 0 | 0 | 0 | 0 | 
5 | O=C(O)CN(CCN(CC(=O)O)CC(=O)O)CC(=O)O [EDETIC ACID] |  |  |  |  |  |  |  |  |  |  |  |  |  |  | HepSE_hepatitis (Hepatotoxicity [1]; Liver): 0; HepSE_hepatomegaly (Hepatotoxicity [2]; Liver): 0; HepSE_liver function tests abnormal (Hepatotoxicity [3]; Liver): 0; HepSE_hepatic failure (Hepatotoxicity [4]; Liver): 0; HepSE_liver fatty (Hepatotoxicity [5]; Liver): 0; HepSE_Combined Scores (Hepatotoxicity [6]; Liver): 0; HepSE_cirrhosis (Hepatotoxicity [7]; Liver): 0; HepSE_cholelithiasis (Hepatotoxicity [8]; Liver): 0; HepSE_liver disease (Hepatotoxicity [9]; Liver): 0; HepSE_jaundice (Hepatotoxicity [10]; Liver): 0; HepSE_elevated liver function tests (Hepatotoxicity [11]; Liver): 0; HepSE_cholecystitis (Hepatotoxicity [12]; Liver): 0; HepSE_hepatic necrosis (Hepatotoxicity [13]; Liver): 0; HepSE_bilirubinemia (Hepatotoxicity [14]; Liver): 0
6 | O=C1Nc2ccc(Cl)cc2[C@@](C#CC2CC2)(C(F)(F)F)O1 [EFAVIRENZ] | 1 | 1 | 0 | 1 | 0 | 4 | 0 | 0 | 0 | 1 | 0 | 0 | 0 | 0 | 
7 | NCCCC(N)(C(=O)O)C(F)F (stereo not drawn) [EFLORNITHINE] | 0 | 0 | 0 | 0 | 0 | 0 | 0 | 0 | 0 | 0 | 0 | 0 | 0 | 0 | 
8 | CCOCCn1c(N2CCCN(C)CC2)nc2ccccc21 [EMEDASTINE] | 0 | 0 | 0 | 0 | 0 | 0 | 0 | 0 | 0 | 0 | 0 | 0 | 0 | 0 | 
9 | Nc1nc(=O)n([C@@H]2CS[C@H](CO)O2)cc1F [EMTRICITABINE] |  |  |  |  |  |  |  |  |  |  |  |  |  |  | HepSE_hepatitis (Hepatotoxicity [1]; Liver): 0; HepSE_hepatomegaly (Hepatotoxicity [2]; Liver): 0; HepSE_liver function tests abnormal (Hepatotoxicity [3]; Liver): 0; HepSE_hepatic failure (Hepatotoxicity [4]; Liver): 0; HepSE_liver fatty (Hepatotoxicity [5]; Liver): 0; HepSE_Combined Scores (Hepatotoxicity [6]; Liver): 0; HepSE_cirrhosis (Hepatotoxicity [7]; Liver): 0; HepSE_cholelithiasis (Hepatotoxicity [8]; Liver): 0; HepSE_liver disease (Hepatotoxicity [9]; Liver): 0; HepSE_jaundice (Hepatotoxicity [10]; Liver): 0; HepSE_elevated liver function tests (Hepatotoxicity [11]; Liver): 0; HepSE_cholecystitis (Hepatotoxicity [12]; Liver): 0; HepSE_hepatic necrosis (Hepatotoxicity [13]; Liver): 0; HepSE_bilirubinemia (Hepatotoxicity [14]; Liver): 0
10 | COc1ccc(C(=O)Nc2ccccc2CCC2CCCCN2C)cc1 (stereo not drawn) [ENCAINIDE] | 1 | 0 | 0 | 0 | 0 | 2 | 0 | 0 | 0 | 1 | 0 | 0 | 0 | 0 | 
11 | CCN(CC)C(=O)/C(C#N)=C/c1cc(O)c(O)c([N+](=O)[O-])c1 [ENTACAPONE] | 1 | 0 | 0 | 1 | 0 | 5 | 0 | 1 | 0 | 0 | 0 | 1 | 0 | 1 | 
12 | NC1=NCC2c3ccccc3Cc3ccccc3N12 (stereo not drawn) [EPINASTINE] |  |  |  |  |  |  |  |  |  |  |  |  |  |  | HepSE_hepatitis (Hepatotoxicity [1]; Liver): 0; HepSE_hepatomegaly (Hepatotoxicity [2]; Liver): 0; HepSE_liver function tests abnormal (Hepatotoxicity [3]; Liver): 0; HepSE_hepatic failure (Hepatotoxicity [4]; Liver): 0; HepSE_liver fatty (Hepatotoxicity [5]; Liver): 0; HepSE_Combined Scores (Hepatotoxicity [6]; Liver): 0; HepSE_cirrhosis (Hepatotoxicity [7]; Liver): 0; HepSE_cholelithiasis (Hepatotoxicity [8]; Liver): 0; HepSE_liver disease (Hepatotoxicity [9]; Liver): 0; HepSE_jaundice (Hepatotoxicity [10]; Liver): 0; HepSE_elevated liver function tests (Hepatotoxicity [11]; Liver): 0; HepSE_cholecystitis (Hepatotoxicity [12]; Liver): 0; HepSE_hepatic necrosis (Hepatotoxicity [13]; Liver): 0; HepSE_bilirubinemia (Hepatotoxicity [14]; Liver): 0
13 | CNC[C@H](O)c1ccc(O)c(O)c1 [EPINEPHRINE] |  |  |  |  |  |  |  |  |  |  |  |  |  |  | HepSE_hepatitis (Hepatotoxicity [1]; Liver): 0; HepSE_hepatomegaly (Hepatotoxicity [2]; Liver): 0; HepSE_liver function tests abnormal (Hepatotoxicity [3]; Liver): 0; HepSE_hepatic failure (Hepatotoxicity [4]; Liver): 0; HepSE_liver fatty (Hepatotoxicity [5]; Liver): 0; HepSE_Combined Scores (Hepatotoxicity [6]; Liver): 0; HepSE_cirrhosis (Hepatotoxicity [7]; Liver): 0; HepSE_cholelithiasis (Hepatotoxicity [8]; Liver): 0; HepSE_liver disease (Hepatotoxicity [9]; Liver): 0; HepSE_jaundice (Hepatotoxicity [10]; Liver): 0; HepSE_elevated liver function tests (Hepatotoxicity [11]; Liver): 0; HepSE_cholecystitis (Hepatotoxicity [12]; Liver): 0; HepSE_hepatic necrosis (Hepatotoxicity [13]; Liver): 0; HepSE_bilirubinemia (Hepatotoxicity [14]; Liver): 0
14 | COC(=O)[C@@H]1CC2=CC(=O)CC[C@]2(C)[C@@]23O[C@@H]2C[C@@]2(C)[C@@H](CC[C@@]24CCC(=O)O4)[C@H]13 [EPLERENONE] | 0 | 0 | 0 | 1 | 0 | 1 | 0 | 0 | 0 | 0 | 0 | 0 | 0 | 0 | 
15 | CCCCC[C@H](O)/C=C/[C@@H]1[C@H]2C/C(=C/CCCC(=O)O)O[C@H]2C[C@H]1O [EPOPROSTENOL] | 0 | 0 | 0 | 1 | 0 | 1 | 0 | 0 | 0 | 0 | 0 | 0 | 0 | 0 | 
16 | CCCCc1ncc(/C=C(\Cc2cccs2)C(=O)O)n1Cc1ccc(C(=O)O)cc1 [EPROSARTAN] | 0 | 0 | 0 | 0 | 0 | 0 | 0 | 0 | 0 | 0 | 0 | 0 | 0 | 0 | 
17 | N=C(N)NCCCC[C@@H]1NC(=O)CCSSC[C@@H](C(N)=O)NC(=O)[C@@H]2CCCN2C(=O)[C@H](Cc2c[nH]c3ccccc23)NC(=O)[C@H](CC(=O)O)NC(=O)CNC1=O [EPTIFIBATIDE] ([Mpa][hArg]GDWPC-NH2; disulfide 1-7) | 0 | 0 | 0 | 0 | 0 | 0 | 0 | 0 | 0 | 0 | 0 | 0 | 0 | 0 | 
